Results: US20070270421A1, “Novel pyridine Derivative and Pyrimidine Derivative (1)” (priority 2004, published 2007)
pIC50: −log10 of the molar value.

Experiments:
[1] = system: Human gastric cancer cells (MKN-45) tumor; assay: Inhibitory activity against the tumor growth of human gastric cancer cells (MKN-45) transplanted in mice; assay type: in vivo, BALB/c (nu/nu) mice; conditions: oral, twice every day, fifth day, tumor volume relative to control group
Method: Human gastric cancer cells (MNK-45) were suspended in HBSS (purchased from GIBCO BRL). The cell suspension (5×10^7 cells/ml) was transplanted under the right flank skin of seven-week-old female BALB/c (nu/nu) mice at a volume of 0.1 ml. When tumor volume of the site transplanted with MNK-45 cells grew to 100-200 mm^3, mice were grouped so that the groups might be equalized in average tumor volume. The test substance was suspended in 0.5% methylcellulose, a mixed solution of hydrochloric acid and glucose (0.1N hydrochloric acid:5% glucose=1:9) or a mixed solution of dimethyl sulfoxide-Tween-glucose (dimethyl sulfoxide:Tween 80:5% glucose (containing equimolar hydrochloric acid to the test substance)=7:13:80), were administered orally to the mice twice every day. The tumor volumes were determined at the fifth day after the initiation of the administration of the test substances. The major axis and the minor axis of tumor were measured by a caliper to calculate 1/2×(major axis×minor axis×minor axis) for the tumor volume. The experiment was conducted using 10 mice in the control group (solvent-administered group) and 5 mice in test substance-administered group. The ratio in tumor volume of the group for administrating the test substance relative to that of the control group was defined as a tumor proliferation rate (%).

[2] = system: Human umbilical vein endothelial cells (HUVECs); assay: Inhibitory activity against the growth of vascular endothelial cells stimulated with hepatocyte growth factor; assay type: cell-based; conditions: HUVEC, HGF stimulation, third day, Cell Counting Kit-8, read-out: IC50 (concentration necessary to inhibit cell proliferation activity by 50%)
Method: (§1) Human umbilical vein endothelial cells (HUVECs) were isolated according to the reported method (Shin Seikagaku Jikken Koza, “Cell culturing techniques”, p 197-202), and then cultured in a 5% CO2 incubator (37° C.) using EGM-2 medium (purchased from Clonetics) until the cells reached confluency.
HUVECs were suspended in a serum-free medium for endothelial cell culture (SFM, purchased from GIBCO RBL) containing 2% FBS. The cell suspension (2×10^4 cells/ml) was put in a cell culturing 96-well plate (purchased from NUNC, Production No. 167008) at 0.1 ml/well, and then cultured in a 5% CO2 incubator (37° C.) overnight. […] After the incubation, using a Plate Reader MTP-500 (Corona Electric), the absorbance of each well was determined at a measurement wavelength of 450 nm and a reference wavelength of 660 nm. While defining the absorbance of a well supplied with HGF and no test substance as 100% cell proliferation activity and the absorbance of the well supplied with no test substance and no HGF as 0% cell proliferation activity, the cell proliferation activity ratio (%) was calculated for each cell. […]

[3] = system: Human umbilical vein endothelial cells (HUVECs); assay: Inhibitory activity against sandwich tube formation by vascular endothelial cells stimulated with hepatocyte growth factor; assay type: cell-based; conditions: HUVEC in collagen gel, 30 ng/ml HGF, fourth day, total tube length, read-out: IC50 (concentration necessary to inhibit the tube formation by 50%)
Method: as §1
To each well of a 24-well plate was added 0.4 ml of an ice-cold mixture of collagen:5×RPMI1640:reconstitution buffer (all purchased from Nitta Gelatin, Inc.) at 7:2:1, followed by incubating in a 5% CO2 incubator (37° C.) for 40 min to allow the solution to gel. Then, each well was supplied with 1 ml of the cell suspension of HUVEC (1-1.2×10^5 cells were used, though the cell number varied slightly depending on the lot of the HUVEC to be used) diluted with a serum free medium for endothelial cell culture (SFM, purchased from GIBCO RBL) supplemented with 10 ng/ml of EGF, followed by culturing in a 5% CO2 incubator (37° C.) overnight. […] The tube formed in the collagen gel of each well was stained with MTT, and then the tube image was loaded in a computer (Macintosh) to determine the total length of the tube by an image analysis software “Angiogenesis quantification software” (purchased from Kurabo). The ratio of the total length of a tube formed in a well supplied with the test substance relative to a tube formed in a well supplied with no test substance was expressed as a percentage. […]

Structure (SMILES)	Tumor proliferation rate (%) ([1]; Dose 30 mg/kg/time)	Tumor proliferation rate (%) ([1]; Dose 100 mg/kg/time)	pIC50 [2]	Tumor proliferation rate (%) ([1]; Dose 10 mg/kg/time)	pIC50 [3]
O=C(Cc1ccc(F)cc1)NC(=S)Nc1ccc(Oc2cc(NC(=O)N3CCCC3)ncn2)c(F)c1 [Example 3, Pyrrolidine-1-carboxylic acid [6-(2-fluoro-4-{3-[2-(4-fluorophenyl)acetyl]thioureido}phenoxy)pyrimidin-4-yl]amide]	69%	37%	6.72		
O=C(Cc1ccc(F)cc1)NC(=S)Nc1ccc(Oc2ccnc(NC(=O)N3CCCC3)c2)c(F)c1 [Example 13, 4-(2-Fluoro-4-{3-[2-(4-fluorophenyl)acetyl]thioureido}phenoxy)-2-[(pyrrolidin-1-yl)carbonylamino]pyridine]	47%	26%	7.14	68%	6.89
